In patent US20260315376A1, “NOVEL OPHTHALMIC COMPOSITION” (Cipla Limited, priority 2022, published 2026):
In brackets after ≈: the same amount, converted by molar mass.

Legend:
[1] = system: S. haemolyticus; test: Broth microdilution antibacterial susceptibility (MIC), keratitis/conjunctivitis isolates; type: cell-based, Staphylococcus haemolyticus; conditions: at ≤2 mcg/mL
Experimental: (§1) Example 3: In Vitro “Proof of Concept” Study of Effects of Plazomicin on Isolates from Bacterial Keratitis and/or Conjunctivitis
(§2) Isolates from patients diagnosed clinically with microbial keratitis were tested for antibacterial susceptibility against plazomicin agents using reference broth microdilution methods.
(§3) 21 grams of Muller Hinton broth powder was suspended in 1000 ml of distilled water.
(§4) Pure cultures of bacterial isolates were prepared in Blood Agar/Mueller Hinton agar from cryovials.
(§5) A standardized inoculum of 0.5 McFarland was prepared using direct colony suspension method.
(§6) 3-5 well isolated colonies were taken from 18-24 hour culture plate and suspended into 2 ml of sterile saline/Muller Hinton broth.
(§7) A homogenous suspension was made, and the turbidity was adjusted to 0.5McFarland turbidity standard (approximately 1*10^6-8 CFU/ml) using the Densitometer.
(§8) A 0.1 ml of standardized bacterial inoculum was added to 9.9 ml of sterile saline solution. (i.e., a 1:100 dilution).
(§9) A 96 well round bottomed plate was used for the Microbroth dilution assay. […]
(§10) The plate was incubated for 18-24 hours to read the Minimum Inhibitory Concentration (MIC).
(§11) Gram positive isolates evaluated: • 1. […]

[2] = system: S. epidermidis; test: as above; type: cell-based, Staphylococcus epidermidis; conditions: at ≤2 mcg/mL
Experimental: as §1, §2, §3, §4, §5, §6, §7, §8, §9, §10, §11

[3] = system: Enterobacter spp.; test: as above; type: cell-based; conditions: at ≤2 mcg/mL
Experimental: as §1, §2, §3, §4, §5, §6, §7, §8
(§12) A 96 well round bottomed plate was used for the Microbroth dilution assay.
(§13) A 100 μl of Muller Hinton broth containing drug concentrations from 0.125 mcg/ml to 64 mcg/ml (0.125 mcg/ml, 0.25 mcg/ml, 0.5 mcg/ml, 1 mcg/ml, 2 mcg/ml, 4 mcg/ml, 8 mcg/ml, 16 mcg/ml, 32 mcg/ml, and 64 mcg/ml) were added to the 96 well.
(§14) To this a 100 μl of the diluted bacterial inoculum (1:100) was added to each well with varying concentration of drugs. Each well contained 5*10^5 CFU/ml bacteria.
(§15) Growth control (Respective organism+Muller Hinton broth) and sterility control (Sterile Muller Hinton broth) were added to the 96 well plate.
as §10
(§16) • 1. Pseudomonas • 2. Klebsiella pneumoniae • 3. Klebsiella pneumoniae (ESBLs) • 4. Moraxella lacunata • 5. Haemophilus influenzae • 6. Proteus • 7. Serratia • 8. Enterobacter e.

[4] = system: Enterobacterales isolates; test: as above; type: cell-based
Experimental: as §1, §2, §3, §4, §5, §6, §7, §8, §12, §13, §14, §15, §10, §16

[5] = system: Pseudomonas spp.; test: as above; type: cell-based
Experimental: as §1, §2, §3, §4, §5, §6, §7, §8, §12, §13, §14, §15, §10, §16

[6] = system: Moraxella lacunata; test: as above; type: cell-based; conditions: at ≤2 mcg/mL
Experimental: as §1, §2, §3, §4, §5, §6, §7, §8, §12, §13, §14, §15, §10, §16

[7] = system: MRSA; conditions: vs amikacin; cited from earlier work
[8] = system: Gram-negative enteric bacteria; conditions: cited from earlier work
[9] = system: Isolates from Bacterial Keratitis and/or Conjunctivitis; test: In vitro proof of concept study, overall antibacterial activity; type: cell-based
Experimental: as §1, §2, §3, §4, §5, §6, §7, §8, §9, §10, §11

[10] = system: conjunctival isolates; test: Broth microdilution antibacterial susceptibility (MIC), conjunctival isolates; type: cell-based; conditions: ≤4 mcg/mL
Experimental: as §1, §2, §3, §4, §5, §6, §7, §8, §9, §10, §11

[11] = system: species of Staphylococcus; conditions: cited from earlier work
[12] = system: MSSA; conditions: vs amikacin; cited from earlier work
[13] = system: S. hominis; test: Broth microdilution antibacterial susceptibility (MIC), keratitis/conjunctivitis isolates; type: cell-based, Staphylococcus hominis; conditions: at ≤2 mcg/mL
Experimental: as §1, §2, §3, §4, §5, §6, §7, §8, §9, §10, §11

[14] = system: Methicillin susceptible Staphylococcus aureus (MSSA); test: as above; type: cell-based
Experimental: as §1, §2, §3, §4, §5, §6, §7, §8, §12, §13, §14, §15, §10
(§17) Gram positive isolates evaluated: • 1. Methicillin susceptible Staphylococcus aureus (MSSA) • 2. Methicillin resistant Staphylococcus aureus (MRSA) • 3. Staphylococcus epidermidis • 4. Staphylococcus hominis • 5. Staphylococcus haemolyticus • 6. Streptococcus pneumoniae • 7. Corynebacterium

[15] = system: Staphylococcus spp.; test: as above; type: cell-based
Experimental: as §1, §2, §3, §4, §5, §6, §7, §8, §12, §13, §14, §15, §10, §17

[16] = system: Corynebacterium; test: as above; type: cell-based; conditions: at ≤2 mcg/mL
Experimental: as §1, §2, §3, §4, §5, §6, §7, §8, §12, §13, §14, §15, §10, §17

[17] = system: Methicillin resistant Staphylococcus aureus (MRSA); test: as above; type: cell-based
Experimental: as §1, §2, §3, §4, §5, §6, §7, §8, §12, §13, §14, §15, §10, §17

[18] = Staphylococcus aureus, 18-24 hours incubation

With `CN[C@@H]1[C@@H](O)[C@@H](O[C@@H]2[C@@H](O)[C@H](O[C@H]3OC(CNCCO)=CC[C@H]3N)[C@@H](N)C[C@H]2NC(=O)[C@@H](O)CCN)OC[C@]1(C)O` [Plazomicin] the “activity (% of isolates)” value [1] was 100%, the “activity (% of isolates)” value [2] was 100% and the “activity (% of isolates)” value [3] was 100%. For the same molecule, the isolates inhibited ([4]; at ≤2 mcg/mL) was 61.5%, the isolates inhibited ([4]; at ≤4 mcg/mL) was 11.5% and the “showed activity for % of isolates” value [5] was 50%. The MIC50 ([5]; 18-24 hours incubation) was 4 µg/mL (≈ 6.75 µM), the MIC90 ([5]; 18-24 hours incubation) was 16 µg/mL (≈ 27 µM) and the “activity (% of isolates)” value [6] was 100%. For the same molecule, the “activity compared with amikacin” value [7] was “greater activity than amikacin”, the “in vitro activity compared with amikacin, gentamicin and tobramycin” value [8] was “more potent in vitro activity than amikacin, gentamicin and tobramycin” and the “antibacterial activity (conclusion)” value [9] was “very good antibacterial activity”. The “susceptibility of conjunctival isolates” value [10] was 100%, the activity [11] was “potent activity” and the “activity compared with amikacin” value [12] was “greater activity than amikacin”. The “activity (% of isolates)” value [13] was 100%, the susceptible isolates [14] was 67.3% and the MIC50 [14, 18] was 2 µg/mL (≈ 3.37 µM). For the same molecule, the MIC90 [14, 18] was 8 µg/mL (≈ 13.5 µM), the isolates inhibited ([15]; at ≤2 mcg/mL) was 46% and the isolates inhibited ([15]; at ≤4 mcg/mL) was 73.5%. The isolates inhibited ([15]; at ≤8 mcg/mL) was 90.10%, the “activity (% of isolates)” value [16] was 100% and the susceptible isolates [17] was 60%. For the same molecule, the MIC50 [17, 18] was 2 µg/mL (≈ 3.37 µM) and the MIC90 [17, 18] was 8 µg/mL (≈ 13.5 µM).
